23 compounds from US7750003B2, “Compounds-943” (AstraZeneca AB, priority 2006, dated 2010) can be followed below.

pIC50: −log10 of the molar value.

As usually defined, the pIC50 is the IC50 on a negative log10 scale, so that one unit is a factor of ten.

Sequence of recombinant mTOR (FLAG-tagged, residues 1362-2549) (P42345 1362-2549): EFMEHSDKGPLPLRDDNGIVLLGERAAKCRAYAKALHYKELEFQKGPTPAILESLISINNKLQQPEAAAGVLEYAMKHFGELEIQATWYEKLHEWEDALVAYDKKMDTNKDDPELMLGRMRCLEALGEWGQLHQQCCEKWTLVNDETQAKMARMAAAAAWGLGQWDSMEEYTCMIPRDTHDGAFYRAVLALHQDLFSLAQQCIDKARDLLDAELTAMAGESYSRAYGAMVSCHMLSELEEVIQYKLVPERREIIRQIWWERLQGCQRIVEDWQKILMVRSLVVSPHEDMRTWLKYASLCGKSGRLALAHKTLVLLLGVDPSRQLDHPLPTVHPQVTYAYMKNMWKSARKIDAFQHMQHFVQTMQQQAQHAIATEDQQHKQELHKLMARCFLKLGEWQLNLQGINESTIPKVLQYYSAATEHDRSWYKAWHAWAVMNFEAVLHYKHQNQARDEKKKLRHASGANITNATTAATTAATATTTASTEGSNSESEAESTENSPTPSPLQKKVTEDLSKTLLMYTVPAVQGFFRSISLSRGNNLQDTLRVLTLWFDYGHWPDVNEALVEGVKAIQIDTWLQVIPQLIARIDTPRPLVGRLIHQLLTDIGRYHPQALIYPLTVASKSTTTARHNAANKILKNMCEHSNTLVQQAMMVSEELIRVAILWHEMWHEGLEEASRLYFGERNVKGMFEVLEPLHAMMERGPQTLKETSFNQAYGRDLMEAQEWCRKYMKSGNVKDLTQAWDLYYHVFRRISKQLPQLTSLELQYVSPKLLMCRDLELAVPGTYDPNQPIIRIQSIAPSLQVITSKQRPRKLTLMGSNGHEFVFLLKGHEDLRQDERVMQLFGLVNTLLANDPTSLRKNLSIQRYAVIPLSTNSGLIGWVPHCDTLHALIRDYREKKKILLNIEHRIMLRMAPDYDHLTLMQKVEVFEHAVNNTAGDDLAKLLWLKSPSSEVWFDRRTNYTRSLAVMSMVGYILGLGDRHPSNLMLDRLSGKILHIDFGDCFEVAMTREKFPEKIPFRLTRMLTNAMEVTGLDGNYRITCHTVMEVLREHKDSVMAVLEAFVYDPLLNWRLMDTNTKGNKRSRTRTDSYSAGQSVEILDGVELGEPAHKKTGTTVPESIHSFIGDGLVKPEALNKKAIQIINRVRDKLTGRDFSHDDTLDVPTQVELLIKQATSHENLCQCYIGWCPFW

For the assay, the target named is recombinant mTOR (FLAG-tagged, residues 1362-2549) (Homo sapiens, UniProt P42345). In words: In vitro mTOR kinase assay (Test (a), AlphaScreen). It counts as biochemical. The note with it: ATP 20 μM, read-out: Test (a): IC50 versus mTOR kinase. Summed up:
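AlphaScreen read-out: a phospho-T389 p70 S6K antibody on acceptor beads captures the phosphorylated biotin-peptide on donor beads, with signal loss indicating inhibition.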
As for `CNC(=O)Nc1ccc(-c2nc(CS(=O)(=O)CC(N)=O)cc(N3CCOC[C@@H]3C)n2)cc1` [Example 26a, 2-[[2-[4-(methylcarbamoylamino)phenyl]-6-[(3S)-3-methylmorpholin-4-yl]pyrimidin-4-yl]methylsulfonyl]acetamide], the pIC50 was 7.43.

Take `CNC(=O)Nc1ccc(-c2nc(CS(=O)(=O)CCNC(C)=O)cc(N3CCOC[C@@H]3C)n2)cc1` [Example 26b, N-[2-[[2-[4-(methylcarbamoylamino)phenyl]-6-[(3S)-3-methylmorpholin-4-yl]pyrimidin-4-yl]methylsulfonyl]ethyl]acetamide]: the pIC50 is 7.39.

For `C[C@H]1COCCN1c1cc(CN2CCOCC2)nc(-c2ccc(NC(=O)Nc3ccccc3)cc2)n1` [Example 27, 1-[4-[4-[(3S)-3-Methylmorpholin-4-yl]-6-(morpholin-4-ylmethyl)pyrimidin-2-yl]phenyl]-3-phenyl-urea], the pIC50 was 6.72.

As for `C[C@H]1COCCN1c1cc(COc2ccccc2)nc(-c2ccc(NC(=O)Nc3ccccc3)cc2)n1` [Example 28, 1-[4-[4-[(3S)-3-Methylmorpholin-4-yl]-6-(phenoxymethyl)pyrimidin-2-yl]phenyl]-3-phenyl-urea], the negative logarithm of the IC50 (pIC50) is 5.33.

For `C[C@H]1COCCN1c1cc(CS(=O)(=O)C2CCNC2=O)nc(-c2ccc(NC(=O)Nc3ccccc3)cc2)n1` (stereo partly drawn) [Example 29, 1-[4-[4-[(3S)-3-Methylmorpholin-4-yl]-6-[(2-oxopyrrolidin-3-yl)sulfonylmethyl]pyrimidin-2-yl]phenyl]-3-phenyl-urea], the pIC50 was 6.25.

On to `C[C@H]1COCCN1c1cc(CNc2ccccc2)nc(-c2ccc(NC(=O)Nc3ccccc3)cc2)n1` [Example 30, 1-[4-[4-(Anilinomethyl)-6-[(3S)-3-methylmorpholin-4-yl]pyrimidin-2-yl]phenyl]-3-phenyl-urea], for which the pIC50 was 6.05.

With `C[C@H]1COCCN1c1cc(CN2CCN(C)CC2)nc(-c2ccc(NC(=O)Nc3ccccc3)cc2)n1` [Example 30a, 1-[4-[4-[(3S)-3-methylmorpholin-4-yl]-6-[(4-methylpiperazin-1-yl)methyl]pyrimidin-2-yl]phenyl]-3-phenyl-urea], the negative logarithm of the IC50 (pIC50) is 6.92.

Consider `C[C@H]1COCCN1c1cc(CNC2CC2)nc(-c2ccc(NC(=O)Nc3ccccc3)cc2)n1` [Example 30b, 1-[4-[4-[(cyclopropylamino)methyl]-6-[(3S)-3-methylmorpholin-4-yl]pyrimidin-2-yl]phenyl]-3-phenyl-urea], for which the pIC50 was 6.74.

Take `C[C@H]1COCCN1c1cc(CNC2CCN(C)CC2)nc(-c2ccc(NC(=O)Nc3ccccc3)cc2)n1` [Example 30c, 1-[4-[4-[(3S)-3-methylmorpholin-4-yl]-6-[[(1-methyl-4-piperidyl)amino]methyl]pyrimidin-2-yl]phenyl]-3-phenyl-urea]: the pIC50 was 5.96.

As to `C[C@H]1COCCN1c1cc(CN(C)C2CC2)nc(-c2ccc(NC(=O)Nc3ccccc3)cc2)n1` [Example 30d, 1-[4-[4-[(cyclopropyl-methyl-amino)methyl]-6-[(3S)-3-methylmorpholin-4-yl]pyrimidin-2-yl]phenyl]-3-phenyl-urea], the pIC50 is 6.55.

For `C[C@H]1COCCN1c1cc(COC2CCN(C)CC2)nc(-c2ccc(NC(=O)Nc3ccccc3)cc2)n1` [Example 31, 1-[4-[4-[(3S)-3-Methylmorpholin-4-yl]-6-[(1-methyl-4-piperidyl)oxymethyl]pyrimidin-2-yl]phenyl]-3-phenyl-urea], the pIC50 was 6.46.

Consider `COCc1cc(N2CCOC[C@@H]2C)nc(-c2ccc(NC(=O)Nc3ccccc3)cc2)n1` [Example 32, 1-[4-[4-(Methoxymethyl)-6-[(3S)-3-methylmorpholin-4-yl]pyrimidin-2-yl]phenyl]-3-phenyl-urea], for which the pIC50 was 8.21.

For `CNC(=O)Nc1ccc(-c2nc(CS(=O)(=O)c3nccn3C)cc(N3CCOC[C@@H]3C)n2)cc1` [Example 33, 3-Methyl-1-[4-[4-[(1-methylimidazol-2-yl)sulfonylmethyl]-6-[(3S)-3-methylmorpholin-4-yl]pyrimidin-2-yl]phenyl]urea], the pIC50 was 6.08.

Take `CNC(=O)Nc1ccc(-c2nc(CS(=O)(=O)c3ccccc3Cl)cc(N3CCOC[C@@H]3C)n2)cc1` [Example 33a, 1-[4-[4-[(2-chlorophenyl)sulfonylmethyl]-6-[(3S)-3-methylmorpholin-4-yl]pyrimidin-2-yl]phenyl]-3-methyl-urea]: the pIC50 was 7.22.

Consider `CNC(=O)Nc1ccc(-c2nc(CS(=O)(=O)c3ccccc3OC)cc(N3CCOC[C@@H]3C)n2)cc1` [Example 33b, 1-[4-[4-[(2-methoxyphenyl)sulfonylmethyl]-6-[(3S)-3-methylmorpholin-4-yl]pyrimidin-2-yl]phenyl]-3-methyl-urea], for which the pIC50 was 7.18.

For `CNC(=O)Nc1ccc(-c2nc(CS(=O)(=O)c3ncc[nH]3)cc(N3CCOC[C@@H]3C)n2)cc1` [Example 33c, 1-[4-[4-(1H-imidazol-2-ylsulfonylmethyl)-6-[(3S)-3-methylmorpholin-4-yl]pyrimidin-2-yl]phenyl]-3-methyl-urea], the pIC50 is 8.85.

For the compound `CNC(=O)Nc1ccc(-c2nc(CS(=O)(=O)c3ccc(N)cc3)cc(N3CCOC[C@@H]3C)n2)cc1` [Example 33d, 1-[4-[4-[(4-aminophenyl)sulfonylmethyl]-6-[(3S)-3-methylmorpholin-4-yl]pyrimidin-2-yl]phenyl]-3-methyl-urea], the pIC50 was 9.51.

For `CNC(=O)Nc1ccc(-c2nc(CS(=O)(=O)c3ccccc3C)cc(N3CCOC[C@@H]3C)n2)cc1` [Example 33e, 3-methyl-1-[4-[4-[(3S)-3-methylmorpholin-4-yl]-6-[(2-methylphenyl)sulfonylmethyl]pyrimidin-2-yl]phenyl]urea], the pIC50 was 7.06.

Regarding `CNC(=O)Nc1ccc(-c2nc(CS(=O)(=O)c3ccccn3)cc(N3CCOC[C@@H]3C)n2)cc1` [Example 33f, 3-methyl-1-[4-[4-[(3S)-3-methylmorpholin-4-yl]-6-(pyridin-2-ylsulfonylmethyl)pyrimidin-2-yl]phenyl]urea], the pIC50 is 6.57.

As for `CNC(=O)Nc1ccc(-c2nc(CS(=O)(=O)c3nccs3)cc(N3CCOC[C@@H]3C)n2)cc1` [Example 33g, 3-methyl-1-[4-[4-[(3S)-3-methylmorpholin-4-yl]-6-(1,3-thiazol-2-ylsulfonylmethyl)pyrimidin-2-yl]phenyl]urea], the pIC50 is 7.68.

With `CNC(=O)Nc1ccc(-c2nc(CS(=O)(=O)c3nc(C)cs3)cc(N3CCOC[C@@H]3C)n2)cc1` [Example 33h, 3-methyl-1-[4-[4-[(3S)-3-methylmorpholin-4-yl]-6-[(4-methyl-1,3-thiazol-2-yl)sulfonylmethyl]pyrimidin-2-yl]phenyl]urea], the pIC50 was 7.32.

For `CS(=O)(=O)Cc1cc(N2CCOCC2)nc(-c2ccc(NC(N)=O)cc2)n1` [Example 34, [4-[4-(Methylsulfonylmethyl)-6-morpholin-4-yl-pyrimidin-2-yl]phenyl]urea], the pIC50 is 6.68.

Take `CS(=O)(=O)Cc1cc(N2CCOCC2)nc(-c2ccc(NC(=O)Nc3ccon3)cc2)n1` [Example 34a, 1-[4-[4-(methylsulfonylmethyl)-6-morpholin-4-yl-pyrimidin-2-yl]phenyl]-3-(1,2-oxazol-3-yl)urea]: the negative logarithm of the IC50 (pIC50) was 7.38.
